Activity calls are given as the source filed them.
Columns and labels:
[1] = molecular target: T1, Replicative DNA helicase DnaB (Mycobacterium tuberculosis, UniProt P9WMR3); assay: DnaB intein splicing inhibitors, dose response, biochemical, cell-free fluorescence (AID 449749); format: functional
T1 sequence (P9WMR3 whole entry): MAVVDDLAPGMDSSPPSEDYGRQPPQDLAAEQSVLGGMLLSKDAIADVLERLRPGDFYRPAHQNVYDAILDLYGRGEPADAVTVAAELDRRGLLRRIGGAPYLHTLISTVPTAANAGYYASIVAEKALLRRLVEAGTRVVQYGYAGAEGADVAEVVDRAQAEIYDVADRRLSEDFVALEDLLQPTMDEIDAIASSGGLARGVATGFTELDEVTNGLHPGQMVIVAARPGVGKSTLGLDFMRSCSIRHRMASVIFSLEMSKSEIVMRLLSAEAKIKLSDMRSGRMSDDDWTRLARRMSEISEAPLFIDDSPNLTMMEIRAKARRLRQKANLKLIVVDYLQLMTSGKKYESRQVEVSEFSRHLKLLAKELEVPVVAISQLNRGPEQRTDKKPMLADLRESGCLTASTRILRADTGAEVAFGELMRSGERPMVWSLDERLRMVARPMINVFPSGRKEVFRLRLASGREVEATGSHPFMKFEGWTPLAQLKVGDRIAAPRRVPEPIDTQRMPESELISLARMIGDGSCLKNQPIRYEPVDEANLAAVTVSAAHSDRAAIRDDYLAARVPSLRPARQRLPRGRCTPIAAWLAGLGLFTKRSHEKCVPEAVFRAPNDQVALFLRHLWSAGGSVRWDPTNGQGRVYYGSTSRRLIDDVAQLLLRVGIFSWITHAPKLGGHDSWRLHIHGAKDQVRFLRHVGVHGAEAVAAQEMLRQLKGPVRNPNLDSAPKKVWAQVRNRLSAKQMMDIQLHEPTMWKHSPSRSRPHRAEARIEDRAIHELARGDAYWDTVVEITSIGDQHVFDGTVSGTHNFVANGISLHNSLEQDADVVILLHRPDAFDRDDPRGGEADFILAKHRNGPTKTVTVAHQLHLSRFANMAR

Protein RecA = molecular target: T2, Protein RecA (Mycobacterium tuberculosis, UniProt P9WHJ3); assay: Fluorescence Cell-Free Homogeneous Dose Retest to Identify Inhibitors of RecA-Intein Splicing Activity. [Related pubchem assays (depositor defined):AID2097, AID2223, AID489010, AID492950]; format: functional
T2 sequence (P9WHJ3 whole entry): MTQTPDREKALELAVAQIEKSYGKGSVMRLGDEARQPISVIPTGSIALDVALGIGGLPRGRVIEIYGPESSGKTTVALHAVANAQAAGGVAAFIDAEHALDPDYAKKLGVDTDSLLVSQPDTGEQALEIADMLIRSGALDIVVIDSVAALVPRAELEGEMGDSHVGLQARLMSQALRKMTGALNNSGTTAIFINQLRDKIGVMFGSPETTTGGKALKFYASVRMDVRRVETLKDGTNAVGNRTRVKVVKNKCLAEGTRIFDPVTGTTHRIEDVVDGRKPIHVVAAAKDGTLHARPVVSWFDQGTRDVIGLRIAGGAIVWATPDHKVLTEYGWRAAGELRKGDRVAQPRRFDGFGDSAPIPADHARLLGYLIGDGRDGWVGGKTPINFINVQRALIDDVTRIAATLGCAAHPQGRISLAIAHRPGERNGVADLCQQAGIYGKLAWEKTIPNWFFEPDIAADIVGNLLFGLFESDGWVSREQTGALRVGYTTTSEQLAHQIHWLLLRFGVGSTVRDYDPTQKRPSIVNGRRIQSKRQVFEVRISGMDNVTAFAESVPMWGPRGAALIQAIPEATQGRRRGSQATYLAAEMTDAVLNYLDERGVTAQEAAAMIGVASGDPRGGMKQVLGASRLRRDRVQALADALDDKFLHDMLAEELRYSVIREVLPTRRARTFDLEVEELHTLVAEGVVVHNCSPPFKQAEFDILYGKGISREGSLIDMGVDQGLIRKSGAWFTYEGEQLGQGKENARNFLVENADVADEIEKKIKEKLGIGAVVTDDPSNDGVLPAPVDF

[2] = molecular target: T3, RNA-binding protein pos-1 (Caenorhabditis elegans, UniProt G5EF15); assay: disruptors of C. elegans POS-1 RNA interaction – biochemical, fluorescence polarization, dose response (AID 1964);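 note: purified POS-1 fused to maltose binding protein made in E. coli; potency of compounds blocking POS-1 binding to fluorescent RNA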
T3 sequence (G5EF15 whole entry): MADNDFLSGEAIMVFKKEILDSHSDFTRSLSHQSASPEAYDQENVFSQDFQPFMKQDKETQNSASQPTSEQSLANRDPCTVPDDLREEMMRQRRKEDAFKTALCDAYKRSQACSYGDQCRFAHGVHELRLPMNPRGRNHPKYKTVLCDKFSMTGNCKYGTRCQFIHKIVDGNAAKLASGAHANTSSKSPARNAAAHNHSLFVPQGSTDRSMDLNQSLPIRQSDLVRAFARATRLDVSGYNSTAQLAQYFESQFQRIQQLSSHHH

[3] = molecular target: T4, Zinc finger protein mex-5 (Caenorhabditis elegans, UniProt Q9XUB2); assay: potency of MEX-5 RNA-binding blockers – biochemical, C. elegans, fluorescence polarization, dose response (AID 1960)
T4 sequence (Q9XUB2 whole entry): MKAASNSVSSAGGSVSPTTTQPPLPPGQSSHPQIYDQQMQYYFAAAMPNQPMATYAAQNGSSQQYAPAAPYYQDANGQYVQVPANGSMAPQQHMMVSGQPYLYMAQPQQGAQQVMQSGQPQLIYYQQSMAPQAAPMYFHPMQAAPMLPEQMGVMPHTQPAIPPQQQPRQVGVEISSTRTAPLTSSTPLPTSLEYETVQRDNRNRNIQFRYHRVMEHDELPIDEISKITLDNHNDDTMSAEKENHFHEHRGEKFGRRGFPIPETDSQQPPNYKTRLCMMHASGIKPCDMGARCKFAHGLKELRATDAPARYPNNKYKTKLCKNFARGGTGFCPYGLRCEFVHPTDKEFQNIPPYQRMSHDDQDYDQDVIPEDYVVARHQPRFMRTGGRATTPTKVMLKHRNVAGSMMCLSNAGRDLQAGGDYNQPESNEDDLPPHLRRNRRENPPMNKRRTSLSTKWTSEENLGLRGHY

[4] = molecular target: Heat shock protein HSP 90-alpha (Homo sapiens, UniProt P07900); format: functional, organism-based
[5] = Luminescence Cell-Based Dose Retest to Confirm Inhibitors of Cancer Stem Cells. [Related pubchem assays (depositor defined):AID2717, AID2721]; format: functional; settings: Homo sapiens
[6] = intracellular Trypanosoma cruzi inhibitors in host cells – cell-based, plate reader, cherry-pick samples, set 3, dose response (AID 651818); format: functional;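 note: compounds incubated with infected cells for about four days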
Cytochrome P450 2D6 = Cytochrome P450 2D6 (Homo sapiens, UniProt P10635);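 note: CYP2D6 member of a cytochrome P450 panel assay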
Cytochrome P450 2D6, sequence (P10635 whole entry): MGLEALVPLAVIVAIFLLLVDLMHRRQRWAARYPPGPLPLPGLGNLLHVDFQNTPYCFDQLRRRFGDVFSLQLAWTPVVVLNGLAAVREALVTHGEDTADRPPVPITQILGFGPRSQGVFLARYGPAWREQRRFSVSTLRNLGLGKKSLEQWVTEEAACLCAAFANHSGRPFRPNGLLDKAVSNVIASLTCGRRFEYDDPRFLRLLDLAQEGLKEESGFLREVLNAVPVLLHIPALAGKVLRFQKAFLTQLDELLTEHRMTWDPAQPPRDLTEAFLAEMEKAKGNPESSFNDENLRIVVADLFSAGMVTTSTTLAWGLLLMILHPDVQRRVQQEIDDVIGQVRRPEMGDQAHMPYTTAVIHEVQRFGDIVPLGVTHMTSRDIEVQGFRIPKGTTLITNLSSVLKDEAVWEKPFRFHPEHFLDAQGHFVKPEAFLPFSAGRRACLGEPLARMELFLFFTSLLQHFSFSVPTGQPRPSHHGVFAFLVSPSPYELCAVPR

Cytochrome P450 2C9 = Cytochrome P450 2C9 (Homo sapiens, UniProt P11712)
Cytochrome P450 2C9, sequence (P11712 whole entry): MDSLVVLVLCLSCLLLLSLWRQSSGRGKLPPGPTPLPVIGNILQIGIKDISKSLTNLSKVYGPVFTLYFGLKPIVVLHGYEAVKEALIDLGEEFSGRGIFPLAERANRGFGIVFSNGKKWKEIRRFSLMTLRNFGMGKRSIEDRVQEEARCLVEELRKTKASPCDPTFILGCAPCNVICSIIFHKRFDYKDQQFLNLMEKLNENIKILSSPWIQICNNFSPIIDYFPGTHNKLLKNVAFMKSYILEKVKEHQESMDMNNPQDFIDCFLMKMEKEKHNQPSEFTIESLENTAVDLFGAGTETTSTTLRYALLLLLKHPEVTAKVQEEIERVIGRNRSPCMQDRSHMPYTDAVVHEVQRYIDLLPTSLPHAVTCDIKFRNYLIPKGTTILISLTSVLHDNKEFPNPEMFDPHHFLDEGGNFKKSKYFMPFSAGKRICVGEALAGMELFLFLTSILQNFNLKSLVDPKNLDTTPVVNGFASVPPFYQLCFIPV

Cytochrome P450 3A4 = Cytochrome P450 3A4 (Homo sapiens, UniProt P08684);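 note: CYP3A4 tested as one member of a cytochrome P450 panel screen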
Cytochrome P450 3A4, sequence (P08684 whole entry): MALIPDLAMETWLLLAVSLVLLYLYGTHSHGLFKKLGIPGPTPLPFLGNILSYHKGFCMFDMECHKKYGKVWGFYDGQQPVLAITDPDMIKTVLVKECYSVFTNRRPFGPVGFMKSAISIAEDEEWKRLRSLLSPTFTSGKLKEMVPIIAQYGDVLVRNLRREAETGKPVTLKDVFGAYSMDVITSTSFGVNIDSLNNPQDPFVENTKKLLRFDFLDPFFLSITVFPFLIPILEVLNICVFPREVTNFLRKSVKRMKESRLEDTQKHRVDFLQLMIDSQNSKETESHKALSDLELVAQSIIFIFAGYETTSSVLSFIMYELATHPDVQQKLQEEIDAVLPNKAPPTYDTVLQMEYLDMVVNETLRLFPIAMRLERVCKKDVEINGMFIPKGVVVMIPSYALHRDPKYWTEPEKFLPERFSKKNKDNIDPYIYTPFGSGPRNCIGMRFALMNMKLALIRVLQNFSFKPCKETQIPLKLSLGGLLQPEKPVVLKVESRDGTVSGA

P388/ADR = assay: cells; format: functional; settings: Mus musculus
P388 = assay: cells; format: functional; settings: Mus musculus
[7] = test system: Streptococcus sp. 'group A'; assay: Streptococcus pyogenes SK(-)GAS viability under kanamycin – luminescence, BacTiterGlo, confirmation, counter-screen for streptokinase expression inhibitor project, dose response (AID 1900); format: functional, organism-based
Streptokinase A = molecular target: T5, Streptokinase A (Streptococcus pyogenes serotype M1, UniProt P10520); assay: viability-normalized secreted streptokinase activity reduction – plasminogen activation absorbance, OD405, dose response (AID 1914); format: functional, Streptococcus pyogenes M1 GAS;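 note: secreted streptokinase activity via plasminogen activation per viability signal from cell pellet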
T5 sequence (P10520 whole entry): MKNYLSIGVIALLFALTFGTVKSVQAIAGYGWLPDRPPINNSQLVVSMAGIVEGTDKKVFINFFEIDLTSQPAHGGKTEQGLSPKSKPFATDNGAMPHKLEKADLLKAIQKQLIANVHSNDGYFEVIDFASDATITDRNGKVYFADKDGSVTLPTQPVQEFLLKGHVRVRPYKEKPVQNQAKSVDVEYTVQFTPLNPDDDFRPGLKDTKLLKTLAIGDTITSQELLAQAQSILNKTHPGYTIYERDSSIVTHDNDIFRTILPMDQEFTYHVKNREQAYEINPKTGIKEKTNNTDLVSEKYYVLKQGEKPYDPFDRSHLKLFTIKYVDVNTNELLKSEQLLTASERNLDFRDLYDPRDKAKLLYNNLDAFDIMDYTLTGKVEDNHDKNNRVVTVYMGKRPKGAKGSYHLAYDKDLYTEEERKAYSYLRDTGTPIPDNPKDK

Streptococcus = assay: GAS UMAA2166 growth inhibition – luminescence, BacTiterGlo, counter-screen for streptokinase expression inhibitor project, dose response (AID 1915); format: functional, organism-based;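 note: potency for reduction of bacterial viability or growth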
[8] = Trypanosoma cruzi growth suppression in host cells – NIH3T3 host cells, beta-gal luminescence, confirmation (AID 2044); format: functional, cell-based;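 note: intracellular parasites grown in NIH/3T3 mouse fibroblasts as host cells; luminescent beta-galactosidase reporter signal from transgenic T. cruzi replicating inside host cells; inhibitors lower the luminescence signal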
[9] = NIH3T3 cell viability loss – ATP luminescence, mouse fibroblasts, counter-screen, dose response (AID 2010); format: functional, cell-based;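 note: cells exposed to compound for about 90 hours before reading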

For `COc1cc(C2NC(=O)C(C#N)=C(Nc3cccc(C)c3)S2)ccc1O` (stereo not drawn), the AC50 [1] was 42 µM (active) and the EC50 (Protein RecA) was 20 µM (active).

With `COc1ccc(C2=CC3=C(Br)C(=O)C(C)(OC(=O)c4ccco4)C(=O)C3=CO2)cc1` (stereo not drawn) the EC50 [2] was > 300 µM (not active), the EC50 [3] was 35.9 µM (active) and the AC50 [4] was 4.13 µM (active).

In the case of `C[C@H](CO)N1C[C@H](C)[C@@H](CN(C)C(=O)Nc2ccc(C(F)(F)F)cc2)Oc2c(NC(=O)Nc3ccc(C(F)(F)F)cc3)cccc2C1=O`, the AC50 [5] is reported as 3.73 µM (active) and the AC50 [6] is reported as 7.68 µM (active).

For `CCn1c(COc2ccc(OC)cc2)nc2ccccc21`, the AC50 (Cytochrome P450 2D6) was 17.8 µM (inconclusive) and the AC50 (Cytochrome P450 2C9) was “inconclusive”.

In the case of `CCOC(=O)CC1=NN(c2ccccc2)C(=O)C1`, the AC50 [1] is reported as 13.1 µM (active) and the EC50 (Protein RecA) is reported as 10.1 µM (active).

For `CCCCCCOc1ccc(N2C(=O)CC(N3CCC(C(=O)OCC)CC3)C2=O)cc1` (stereo not drawn), the AC50 [4] was 2.3 µM (active).

In the case of `CN(C)C(=O)c1ccc(-c2nc(Nc3ccc(F)cc3)c3ccccc3n2)cc1`, the AC50 (Cytochrome P450 2D6) is reported as 25.1 µM (inconclusive) and the AC50 (Cytochrome P450 3A4) is reported as 20 µM (inconclusive).

In the case of `CC(C)c1n[nH]c2c1C(c1cccs1)C(C#N)=C(N)O2` (stereo not drawn), the AC50 [1] is reported as 10.8 µM (active) and the EC50 (Protein RecA) is reported as 4.29 µM (active).

With `COC(=O)c1cc([N+](=O)[O-])c(-n2ccnc2)c([N+](=O)[O-])c1` the AC50 [1] was 6.54 µM (active) and the EC50 (Protein RecA) was 4.53 µM (active).

In the case of `CCOc1cc(/C=C2/C(=N)N3OC(C)=CC3=NC2=O)ccc1O`, the AC50 [1] is reported as 95.1 µM (active) and the EC50 (Protein RecA) is reported as 26.9 µM (active).

In the case of `COc1cc(C2(c3ccc(O)c(OC)c3)C(=O)Nc3c(Br)cc(Br)cc32)ccc1O`, the AC50 [1] is reported as 3.13 µM (active) and the EC50 (Protein RecA) is reported as 4.77 µM (active).

In the case of `CC1CCN(C(CC(=O)c2ccccc2)C(=O)c2ccccc2)CC1` (stereo not drawn), the AC50 [4] is reported as 7.7 µM (active).

In the case of `COC(=O)C12OCC34C(CC5C(C)=CC(=O)C(O)C5(C)C3C(O)C1O)OC(=O)C(OC(=O)CC(C)C)C24` (stereo not drawn), the GI50 (P388/ADR) is reported as 21.6 nM (active) and the GI50 (P388) is reported as 1.54 nM (active).

For `O=C1c2cccc3cc4ccccc4c(c23)C(=O)N1CCNCCNCCNCCN1C(=O)c2cccc3cc4ccccc4c(c23)C1=O`, the GI50 (P388/ADR) was < 18.7 nM (active) and the GI50 (P388) was < 14.6 nM (active).

For `C[C@H]1CN([C@@H](C)CO)C(=O)c2cccc(NC(=O)Nc3ccc4c(c3)OCO4)c2O[C@@H]1CN(C)Cc1ccc(C(=O)Nc2ccccc2N)cc1`, the AC50 [6] was 2.18 µM (active).

For `C[C@H](CO)N1C[C@H](C)[C@@H](CN(C)S(=O)(=O)c2cn(C)cn2)Oc2c(cccc2N(C)C)C1=O`, the AC50 [6] was 15.8 µM (active).

In the case of `C[C@H]1CN([C@@H](C)CO)C(=O)Cc2cc(NC(=O)NC3CCCCC3)ccc2O[C@H]1CN(C)Cc1ccc(C(=O)Nc2ccccc2N)cc1`, the AC50 [6] is reported as 2.97 µM (active).

In the case of `Cc1ccc(S(=O)(=O)Nc2cccc3c2O[C@H](CN(C)C(=O)Nc2ccc4c(c2)OCO4)[C@H](C)CN([C@H](C)CO)C3=O)cc1`, the AC50 [6] is reported as 20 µM (inactive).

For `COc1ccc(CN(C)C[C@@H]2Oc3ccc(NC(=O)Cc4ccccc4)cc3CC(=O)N([C@@H](C)CO)C[C@@H]2C)cc1`, the AC50 [6] was 4.08 µM (active).

In the case of `C[C@@H]1CN([C@H](C)CO)C(=O)Cc2cc(NS(=O)(=O)c3ccc(F)cc3)ccc2O[C@@H]1CN(C)S(=O)(=O)c1ccc(Cl)cc1`, the AC50 [6] is reported as 2.31 µM (active).

In the case of `C[C@@H]1CN([C@H](C)CO)C(=O)Cc2cc(NC(=O)Nc3ccccc3)ccc2O[C@@H]1CN(C)Cc1ccc(C(=O)Nc2ccccc2N)cc1`, the AC50 [6] is reported as 3.23 µM (active).

With `C[C@@H]1CN([C@H](C)CO)C(=O)Cc2cc(NC(=O)Nc3ccc(F)cc3)ccc2O[C@H]1CN(C)Cc1ccc(C(F)(F)F)cc1` the AC50 [6] was 7.02 µM (active).

For `Cc1ccc(N/N=C(\C#N)C(=N)S)c(C)c1`, the EC50 [7] was 32.6 µM (active), the EC50 (Streptokinase A) was > 150 µM (not active) and the EC50 (Streptococcus) was 20.8 µM (active). The AC50 [4] was 1.84 µM (active).

In the case of `COc1ccc2c3c(c4cc(OC)c(OC)cc4c2c1)C[C@H]1CCCCN1C3` [CRYPTOPLEURINE], the GI50 (P388) is reported as 5 nM (active).

With `CC(C)(C)C(O)C(Oc1ccc(Cl)cc1)n1cncn1` (stereo not drawn) [TRIADIMENOL] the EC50 [8] was 1.51 µM (active), the EC50 [9] was > 60 µM (not active) and the AC50 [4] was 0.29 µM (active).

Reference: ChEMBL document CHEMBL1201862, “PubChem BioAssay data set” (2004)
